PubChem BioAssay AID1745844 (Carcinogenic Potency Database (CPDB), 2022)
“And” between values parts separate entries of the source, which are not always exact repeats. Equal entries are not always repeated. The source made the active and inactive calls. How the calls were made is not given here.

Tested on: rodent lifetime carcinogenesis bioassay, tumor incidence TD50
Assay: carcinogenic potency in animals, long-term in vivo studies, CPDB compilation (AID 1745844)
[1] = mouse, strain B6C3F1, males, by gavage, site: any site (literature study), lesion: several types, types named in the paper, dosed 103 weeks, study length 104 weeks
[2] = mouse, strain B6AKF1, females, oral dosing, site: any site (literature study), lesion: several types, types named in the paper, dosed 76 weeks, study length 76 weeks
[3] = mouse, strain B6AKF1, females, oral dosing, site: liver, lesion: hepatoma, dosed 76 weeks, study length 76 weeks
[4] = mouse, strain B6AKF1, females, oral dosing, site: lung, lesion: adenoma, dosed 76 weeks, study length 76 weeks
[5] = mouse, strain B6AKF1, males, oral dosing, site: any site (literature study), lesion: several types, types named in the paper, dosed 76 weeks, study length 76 weeks
[6] = mouse, strain B6AKF1, males, oral dosing, site: liver, lesion: hepatoma, dosed 76 weeks, study length 76 weeks
[7] = mouse, strain B6AKF1, males, oral dosing, site: lung, lesion: adenoma, dosed 76 weeks, study length 76 weeks
[8] = mouse, strain B6C3F1, females, oral dosing, site: any site (literature study), lesion: several types, types named in the paper, dosed 76 weeks, study length 76 weeks
[9] = mouse, strain B6C3F1, females, oral dosing, site: liver, lesion: hepatoma, dosed 76 weeks, study length 76 weeks
[10] = mouse, strain B6C3F1, females, oral dosing, site: lung, lesion: adenoma, dosed 76 weeks, study length 76 weeks
[11] = mouse, strain B6C3F1, males, oral dosing, site: any site (literature study), lesion: several types, types named in the paper, dosed 76 weeks, study length 76 weeks
[12] = mouse, strain B6C3F1, males, oral dosing, site: liver, lesion: hepatoma, dosed 76 weeks, study length 76 weeks

`CN(N=O)C(=O)NCCC[C@H](N)C(=O)O` was tested, and the TD50 (rat, strain Wistar albino, females, i.p., site: kidney, lesion: epithelial neoplasm, dosed 26 weeks, study length 52 weeks) was 0.633 mg/kg/day, the TD50 (rat, strain Wistar albino, females, i.p., site: kidney, lesion: mesenchymal neoplasm, dosed 26 weeks, study length 52 weeks) was 0.633 mg/kg/day and the carcinogen call (rat, strain Wistar albino, females, i.p., site: mammary tissue, wider than the gland, lesion: several types, types named in the paper, dosed 26 weeks, study length 52 weeks) was “positive”. The TD50 (rat, strain Wistar albino, females, i.p., site: pancreas, lesion: adenocarcinoma in adenomatous polyp, dosed 26 weeks, study length 52 weeks) was 11 mg/kg/day, the TD50 (rat, strain Wistar albino, females, i.p., site: skin, lesion: neoplasm, dosed 26 weeks, study length 52 weeks) was 1.42 mg/kg/day and the TD50 (rat, strain Wistar albino, males, i.p., site: Zymbal's gland, lesion: carcinoma, dosed 26 weeks, study length 52 weeks) was 11.8 mg/kg/day. It also gave a TD50 (rat, strain Wistar albino, males, i.p., site: kidney, lesion: epithelial neoplasm, dosed 26 weeks, study length 52 weeks) of 1.04 mg/kg/day, a TD50 (rat, strain Wistar albino, males, i.p., site: kidney, lesion: mesenchymal neoplasm, dosed 26 weeks, study length 52 weeks) of 1.57 mg/kg/day and a TD50 (rat, strain Wistar albino, males, i.p., site: pancreas, lesion: adenocarcinoma, dosed 26 weeks, study length 52 weeks) of 11 mg/kg/day. The TD50 (rat, strain Wistar albino, males, i.p., site: pancreas, lesion: several types, types named in the paper, dosed 26 weeks, study length 52 weeks) was 5.25 mg/kg/day and the TD50 (rat, strain Wistar albino, males, i.p., site: skin, lesion: neoplasm, dosed 26 weeks, study length 52 weeks) was 1.04 mg/kg/day.

For `CCCCCl`, the carcinogen call (mouse, strain B6C3F1, females, by gavage, site: any site (literature study), lesion: several types, types named in the paper, dosed 103 weeks, study length 104 weeks) was “negative (inactive)”, the TD50 (mouse, strain B6C3F1, females, by gavage, site: liver, lesion: hepatocellular adenoma + hepatocellular carcinoma + neoplastic nodule, dosed 103 weeks, study length 105 weeks) was 1380 mg/kg/day and the TD50 (mouse, strain B6C3F1, females, by gavage, site: lung, lesion: alveolar/bronchiolar adenoma + alveolar/bronchiolar carcinoma, dosed 103 weeks, study length 104 weeks) was 13100 mg/kg/day. For the same molecule, the TD50 (mouse, strain B6C3F1, females, by gavage, site: lung, lesion: alveolar/bronchiolar adenoma + alveolar/bronchiolar carcinoma, dosed 103 weeks, study length 105 weeks) was 1160 mg/kg/day, the TD50 (mouse, strain B6C3F1, females, by gavage, site: lung, lesion: alveolar/bronchiolar carcinoma, dosed 103 weeks, study length 105 weeks) was 1710 mg/kg/day (inactive) and the TD50 [1] was 423 mg/kg/day. For the same molecule, the carcinogen call [1] was “negative (inactive)”, the TD50 (mouse, strain B6C3F1, males, by gavage, site: bone marrow + kidney/pelvis + liver + multiple organs + omentum + spleen + thorax, lesion: hemangiosarcoma, dosed 103 weeks, study length 104 weeks) was 2830 mg/kg/day and the TD50 (mouse, strain B6C3F1, males, by gavage, site: liver, lesion: hepatocellular adenoma + hepatocellular carcinoma + neoplastic nodule, dosed 103 weeks, study length 104 weeks) was 808 mg/kg/day and 623 mg/kg/day. For the same molecule, the TD50 (mouse, strain B6C3F1, males, by gavage, site: liver, lesion: hepatocellular adenoma + hepatocellular carcinoma, dosed 103 weeks, study length 104 weeks) was 808 mg/kg/day (inactive), the TD50 (mouse, strain B6C3F1, males, by gavage, site: lung, lesion: alveolar/bronchiolar adenoma + alveolar/bronchiolar carcinoma, dosed 103 weeks, study length 104 weeks) was 3190 mg/kg/day and the TD50 (rat, strain Fischer 344, females, by gavage, site: any site (literature study), lesion: several types, types named in the paper, dosed 103 weeks, study length 105 weeks) was 100 mg/kg/day (inactive). The TD50 (rat, strain Fischer 344, females, by gavage, site: liver, lesion: hepatocellular adenoma + hepatocellular carcinoma + neoplastic nodule, dosed 103 weeks, study length 105 weeks) was 1510 mg/kg/day, the TD50 (rat, strain Fischer 344, males, by gavage, site: any site (literature study), lesion: several types, types named in the paper, dosed 103 weeks, study length 104 weeks) was 40.5 mg/kg/day and the TD50 (rat, strain Fischer 344, males, by gavage, site: testis, lesion: interstitial-cell tumor, dosed 103 weeks, study length 104 weeks) was 45.1 mg/kg/day (inactive).

With `O=NN1CC=CCO1` the TD50 (rat, strain Sprague-Dawley, both sexes, in drinking water, site: any site (literature study), lesion: malignant tumor, dosed 87 weeks, study length 101 weeks) was 90.6 mg/kg/day, the TD50 (rat, strain Sprague-Dawley, both sexes, in drinking water, site: any site (literature study), lesion: several types, types named in the paper, dosed 87 weeks, study length 101 weeks) was 110 mg/kg/day and the TD50 (rat, strain Sprague-Dawley, both sexes, in drinking water, site: liver, lesion: hepatoma, dosed 87 weeks, study length 101 weeks) was 417 mg/kg/day (inactive).

With `CCCCN(CCCC)C(=S)[S-].CCCCN(CCCC)C(=S)[S-].[Zn+2]` the TD50 [2] was 2330 mg/kg/day (inactive), the carcinogen call [3] was “negative (inactive)” and the TD50 [4] was 1090 mg/kg/day (inactive). The carcinogen call [5] was “negative (inactive)”, the carcinogen call [6] was “negative (inactive)” and the carcinogen call [7] was “negative (inactive)”. The TD50 [8] was 731 mg/kg/day (inactive), the carcinogen call [9] was “negative (inactive)” and the TD50 [10] was 2330 mg/kg/day (inactive). For the same molecule, the TD50 [11] was 252 mg/kg/day (inactive), the TD50 [12] was 680 mg/kg/day (inactive) and the TD50 (mouse, strain B6C3F1, males, oral dosing, site: lung, lesion: adenoma, dosed 76 weeks, study length 76 weeks) was 1050 mg/kg/day (inactive).

In the case of `S=C([S-])NCCNC(=S)[S-].[Zn+2]`, the TD50 [2] is reported as 1150 mg/kg/day (inactive), the carcinogen call [3] is reported as “negative (inactive)” and the TD50 [4] is reported as 1150 mg/kg/day (inactive). The TD50 [5] was 715 mg/kg/day (inactive), the TD50 [6] was 903 mg/kg/day (inactive) and the carcinogen call [7] was “negative (inactive)”. For the same molecule, the TD50 [8] was 1150 mg/kg/day (inactive), the carcinogen call [9] was “negative (inactive)” and the TD50 [10] was 1150 mg/kg/day (inactive). The TD50 [11] was 189 mg/kg/day (inactive), the TD50 [12] was 244 mg/kg/day (inactive) and the carcinogen call (mouse, strain B6C3F1, males, oral dosing, site: lung, lesion: several types, types named in the paper, dosed 76 weeks, study length 76 weeks) was “negative (inactive)”. For the same molecule, the carcinogen call (mouse, strain CFLP, females, in feed, site: any site (literature study), lesion: several types, types named in the paper, dosed 92 weeks, study length 94 weeks) was “negative (inactive)”, the TD50 (mouse, strain CFLP, females, in feed, site: liver, lesion: hepatocellular adenoma, dosed 92 weeks, study length 94 weeks) was 1730 mg/kg/day (inactive) and the TD50 (mouse, strain CFLP, females, in feed, site: liver, lesion: hepatocellular carcinoma, dosed 92 weeks, study length 94 weeks) was 12600 mg/kg/day (inactive). For the same molecule, the TD50 (mouse, strain CFLP, females, in feed, site: lung, lesion: adenocarcinoma, dosed 92 weeks, study length 94 weeks) was 6490 mg/kg/day (inactive), the carcinogen call (mouse, strain CFLP, females, in feed, site: lung, lesion: adenoma, dosed 92 weeks, study length 94 weeks) was “negative (inactive)” and the carcinogen call (mouse, strain CFLP, males, in feed, site: any site (literature study), lesion: several types, types named in the paper, dosed 96 weeks, study length 96 weeks) was “negative (inactive)”. For the same molecule, the TD50 (mouse, strain CFLP, males, in feed, site: liver, lesion: hepatocellular adenoma, dosed 96 weeks, study length 96 weeks) was 420 mg/kg/day (inactive), the TD50 (mouse, strain CFLP, males, in feed, site: liver, lesion: hepatocellular carcinoma, dosed 96 weeks, study length 96 weeks) was 3700 mg/kg/day (inactive) and the carcinogen call (mouse, strain CFLP, males, in feed, site: lung, lesion: adenocarcinoma, dosed 96 weeks, study length 96 weeks) was “negative (inactive)”. The TD50 (mouse, strain CFLP, males, in feed, site: lung, lesion: adenoma, dosed 96 weeks, study length 96 weeks) was 932 mg/kg/day (inactive), the carcinogen call (rat, strain Charles River CD (Sprague-Dawley), females, in feed, site: liver, lesion: hepatocellular adenoma, dosed 112 weeks, study length 112 weeks) was “negative (inactive)” and the TD50 (rat, strain Charles River CD (Sprague-Dawley), females, in feed, site: liver, lesion: hepatocellular carcinoma, dosed 112 weeks, study length 112 weeks) was 1190 mg/kg/day (inactive). For the same molecule, the TD50 (rat, strain Charles River CD (Sprague-Dawley), females, in feed, site: pituitary gland, lesion: adenoma, dosed 112 weeks, study length 112 weeks) was 27.9 mg/kg/day (inactive), the carcinogen call (rat, strain Charles River CD (Sprague-Dawley), males, in feed, site: liver, lesion: hepatocellular adenoma, dosed 119 weeks, study length 119 weeks) was “negative (inactive)” and the TD50 (rat, strain Charles River CD (Sprague-Dawley), males, in feed, site: liver, lesion: hepatocellular carcinoma, dosed 119 weeks, study length 119 weeks) was 1080 mg/kg/day (inactive). The carcinogen call (rat, strain Charles River CD (Sprague-Dawley), males, in feed, site: pituitary gland, lesion: adenoma, dosed 119 weeks, study length 119 weeks) was “negative (inactive)” and the TD50 (rat, strain Mongrel, both sexes, by gavage, site: any site (literature study), lesion: several types, types named in the paper, dosed 95 weeks, study length 104 weeks) was 255 mg/kg/day.

With `O=NN1CCC(=O)NC1=O` the TD50 (rat, strain MRC-Wistar, females, in drinking water, site: any site (literature study), lesion: several types, types named in the paper, dosed 41 weeks, study length 70 weeks) was 0.13 mg/kg/day, the TD50 (rat, strain MRC-Wistar, females, in drinking water, site: liver, lesion: hepatocellular carcinoma, dosed 41 weeks, study length 70 weeks) was 0.104 mg/kg/day and the TD50 (rat, strain MRC-Wistar, females, in drinking water, site: liver, lesion: several types, types named in the paper, dosed 41 weeks, study length 70 weeks) was 0.104 mg/kg/day. For the same molecule, the TD50 (rat, strain MRC-Wistar, males, in drinking water, site: any site (literature study), lesion: several types, types named in the paper, dosed 41 weeks, study length 70 weeks) was 0.125 mg/kg/day, the TD50 (rat, strain MRC-Wistar, males, in drinking water, site: liver, lesion: hepatocellular carcinoma, dosed 41 weeks, study length 70 weeks) was 0.0932 mg/kg/day and the TD50 (rat, strain MRC-Wistar, males, in drinking water, site: liver, lesion: several types, types named in the paper, dosed 41 weeks, study length 70 weeks) was 0.0932 mg/kg/day.
